Data published in patent US20190071416A1, “COMPOUNDS FOR TREATMENT OF CANCER AND EPIGENETICS” (Agency For Science, Technology and Research, priority 2015, published 2019).

target: T1, SMYD3 (Homo sapiens, UniProt Q9H7B4); test: SMYD3 biochemical assay (MTase-Glo, MAP3K2 peptide substrate); settings: Table 3; MTase assay, MAP3K2 peptide substrate; read-out: IC50
T1 sequence (Q9H7B4 1-428): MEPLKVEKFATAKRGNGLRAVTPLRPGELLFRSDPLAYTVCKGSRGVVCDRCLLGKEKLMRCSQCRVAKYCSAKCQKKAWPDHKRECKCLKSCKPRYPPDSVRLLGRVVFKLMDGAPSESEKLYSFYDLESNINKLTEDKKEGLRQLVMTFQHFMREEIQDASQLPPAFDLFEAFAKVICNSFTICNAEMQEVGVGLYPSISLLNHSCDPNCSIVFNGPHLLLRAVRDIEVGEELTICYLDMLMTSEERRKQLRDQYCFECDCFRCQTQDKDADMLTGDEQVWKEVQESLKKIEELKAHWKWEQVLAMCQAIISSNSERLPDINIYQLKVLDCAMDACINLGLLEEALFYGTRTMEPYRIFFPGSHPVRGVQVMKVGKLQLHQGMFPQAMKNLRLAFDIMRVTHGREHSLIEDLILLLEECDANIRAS
In short: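 Luminescent readout of SAH production (coupled SAH→ATP conversion, MTase-Glo) after SMYD3 reacted 30 min at room temperature with 1.0 µM SAM and 10 µM MAP3K2 peptide, both final. Non-linear regression gave IC50 values.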

SMILES	IC50
CCCOC(=O)N1CCN(C(=O)c2ccc3c(Cl)cc(-c4ccc(C)nc4)nc3c2)C[C@H]1C [B177, Propyl (R)-4-(4-chloro-2-(6-methylpyridin-3-yl)quinoline-7-carbonyl)-2-methylpiperazine-1-carboxylate]	360 nM
CCCOC(=O)N1CCN(C(=O)c2ccc3c(Cl)cc(-c4ccc(C(=O)OC)nc4)nc3c2)C[C@H]1C [B178, Propyl (R)-4-(4-chloro-2-(6-(methoxycarbonyl)pyridin-3-yl)quinoline-7-carbonyl)-2-methylpiperazine-1-carboxylate]	930 nM
CCCOC(=O)N1CCN(C(=O)c2ccc3c(Cl)cc(-c4cnn(C)c4)nc3c2)CC1 [B179, Propyl 4-(4-chloro-2-(1-methyl-1H-pyrazol-4-yl)quinoline-7-carbonyl)piperazine-1-carboxylate]	250 nM
CCCOC(=O)N1CCN(C(=O)c2ccc3c(Cl)cc(-c4ccc(F)c(N)c4)nc3c2)CC1 [B180, Propyl 4-(2-(3-amino-4-fluorophenyl)-4-chloroquinoline-7-carbonyl)piperazine-1-carboxylate]	250 nM
CCCOC(=O)N1CCN(C(=O)c2ccc3c(Cl)cc(-c4ccc(O)c(OCC)c4)nc3c2)CC1 [B181, Propyl 4-(4-chloro-2-(3-ethoxy-4-hydroxyphenyl)quinoline-7-carbonyl)piperazine-1-carboxylate]	290 nM
CCCOC(=O)N1CCN(C(=O)c2ccc3c(Cl)cc(-c4cnc(N)nc4)nc3c2)CC1 [B185, Propyl 4-(2-(2-aminopyrimidin-5-yl)-4-chloroquinoline-7-carbonyl)piperazine-1-carboxylate]	870 nM
CCCOC(=O)N1CCN(C(=O)c2ccc3c(Cl)cc(-c4cccc5[nH]cnc45)nc3c2)CC1 [B187, Propyl 4-(2-(1H-benzo[d]imidazol-4-yl)-4-chloroquinoline-7-carbonyl)piperazine-1-carboxylate]	140 nM
CCCOC(=O)N1CCN(C(=O)c2ccc3c(Cl)cc(-c4cnc5cccnc5c4)nc3c2)C[C@@H]1C [B188, Propyl (S)-4-(4-chloro-2-(1,5-naphthyridin-3-yl)quinoline-7-carbonyl)-2-methylpiperazine-1-carboxylate]	890 nM
CCCOC(=O)N1CCN(C(=O)c2ccc3c(Cl)cc(-c4ccc(O)c(F)c4)nc3c2)CC1 [B191, Propyl 4-(4-chloro-2-(3-fluoro-4-hydroxyphenyl)quinoline-7-carbonyl)piperazine-1-carboxylate]	140 nM
CCCOC(=O)N1CCN(C(=O)c2ccc3c(Cl)cc(-c4ccc5cnn(C)c5c4)nc3c2)CC1 [B195, Propyl 4-(4-chloro-2-(1-methyl-1H-indazol-6-yl)quinoline-7-carbonyl)piperazine-1-carboxylate]	250 nM
CCCOC(=O)N1CCN(C(=O)c2ccc3c(Cl)cc(-c4ccc5[nH]nc(C)c5c4)nc3c2)[C@@H](C)C1 [B198, Propyl (S)-4-(4-chloro-2-(3-methyl-1H-indazol-5-yl)quinoline-7-carbonyl)-3-methylpiperazine-1-carboxylate]	200 nM
CCCOC(=O)N1CCN(C(=O)c2ccc3c(Cl)cc(-c4cnc5[nH]nc(C)c5c4)nc3c2)C[C@H]1C [B199, Propyl (R)-4-(4-chloro-2-(3-methyl-1H-pyrazolo[3,4-b]pyridin-5-yl)quinoline-7-carbonyl)-2-methylpiperazine-1-carboxylate]	350 nM
CCCOC(=O)N1CCN(C(=O)c2ccc3c(Cl)cc(-c4cnc5[nH]nc(C)c5c4)nc3c2)[C@@H](C)C1 [B200, Propyl (S)-4-(4-chloro-2-(3-methyl-1H-pyrazolo[3,4-b]pyridin-5-yl)quinoline-7-carbonyl)-3-methylpiperazine-1-carboxylate]	1030 nM
CCCOC(=O)N1CCN(C(=O)c2ccc3c(Cl)cc(-c4cc(F)c(O)c(F)c4)nc3c2)CC1 [B201, Propyl 4-(4-chloro-2-(3,5-difluoro-4-hydroxyphenyl)quinoline-7-carbonyl)piperazine-1-carboxylate]	180 nM
CCCOC(=O)N1CCN(C(=O)c2ccc3c(Cl)cc(-c4ccc5occc5c4)nc3c2)CC1 [B203, Propyl 4-(2-(benzofuran-5-yl)-4-chloroquinoline-7-carbonyl)piperazine-1-carboxylate]	460 nM
CCCOC(=O)N1CCN(C(=O)c2ccc3c(Cl)cc(-c4ccc(C(=O)NC)c(F)c4)nc3c2)CC1 [B204, Propyl 4-(4-chloro-2-(3-fluoro-4-(methylcarbamoyl)phenyl)quinoline-7-carbonyl)piperazine-1-carboxylate]	1010 nM
CCCOC(=O)N1CCN(C(=O)c2ccc3c(Cl)cc(-c4ccc(C(=O)NC5CC5)c(F)c4)nc3c2)CC1 [B205, Propyl 4-(4-chloro-2-(4-(cyclopropylcarbamoyl)-3-fluorophenyl)quinoline-7-carbonyl)piperazine-1-carboxylate]	890 nM
CCCOC(=O)N1CCN(C(=O)c2ccc3c(Cl)cc(-c4ccc(C(=O)NCC)cc4)nc3c2)CC1 [B206, Propyl 4-(4-chloro-2-(4-(ethylcarbamoyl)phenyl)quinoline-7-carbonyl)piperazine-1-carboxylate]	600 nM
CCCOC(=O)N1CCN(C(=O)c2ccc3c(Cl)cc(-c4ccc5nc(C)sc5c4)nc3c2)CC1 [B208, Propyl 4-(4-chloro-2-(2-methylbenzo[d]thiazol-6-yl)quinoline-7-carbonyl)piperazine-1-carboxylate]	380 nM
CCCOC(=O)N1CCN(C(=O)c2ccc3c(Cl)cc(-c4cc[nH]c4)nc3c2)CC1 [B209, Propyl 4-(4-chloro-2-(1H-pyrrol-3-yl)quinoline-7-carbonyl)piperazine-1-carboxylate]	190 nM

Results, then the compound that gave them:

IC50	SMILES
140 nM	CCCOC(=O)N1CCN(C(=O)c2ccc3c(Cl)cc(-c4ccc(O)c(CO)c4)nc3c2)C[C@@H]1C [B182, Propyl (S)-4-(4-chloro-2-(4-hydroxy-3-(hydroxymethyl)phenyl)quinoline-7-carbonyl)-2-methylpiperazine-1-carboxylate]
120 nM	CCCOC(=O)N1CCN(C(=O)c2ccc3c(Cl)cc(-c4ccc5c(c4)ncn5C)nc3c2)CC1 [B183, Propyl 4-(4-chloro-2-(1-methyl-1H-benzo[d]imidazol-5-yl)quinoline-7-carbonyl)piperazine-1-carboxylate]
100 nM	CCCOC(=O)N1CCN(C(=O)c2ccc3c(Cl)cc(-c4ccc5[nH]c(O)nc5c4)nc3c2)CC1 [B184, Propyl 4-(4-chloro-2-(2-hydroxy-1H-benzo[d]imidazol-5-yl)quinoline-7-carbonyl)piperazine-1-carboxylate]
140 nM	CCCOC(=O)N1CCN(C(=O)c2ccc3c(Cl)cc(-c4cc(C)c5[nH]ncc5c4)nc3c2)CC1 [B186, Propyl 4-(4-chloro-2-(7-methyl-1H-indazol-5-yl)quinoline-7-carbonyl)piperazine-1-carboxylate]
69 nM	CCCOC(=O)N1CCN(C(=O)c2ccc3c(Cl)cc(-c4ccc(C(=O)NC)cc4)nc3c2)C[C@@H]1C [B189, Propyl (S)-4-(4-chloro-2-(4-(methylcarbamoyl)phenyl)quinoline-7-carbonyl)-2-methylpiperazine-1-carboxylate]
130 nM	CCCOC(=O)N1CCN(C(=O)c2ccc3c(Cl)cc(-c4ccc(C(=O)NC)cc4)nc3c2)[C@@H](C)C1 [B190, Propyl (S)-4-(4-chloro-2-(4-(methylcarbamoyl)phenyl)quinoline-7-carbonyl)-3-methylpiperazine-1-carboxylate]
75 nM	CCCOC(=O)N1CCN(C(=O)c2ccc3c(Cl)cc(-c4ccc(O)c(F)c4)nc3c2)C[C@@H]1C [B192, Propyl (S)-4-(4-chloro-2-(3-fluoro-4-hydroxyphenyl)quinoline-7-carbonyl)-2-methylpiperazine-1-carboxylate]
60 nM	CCCOC(=O)N1CCN(C(=O)c2ccc3c(Cl)cc(-c4ccn(C)c4)nc3c2)C[C@@H]1C [B193, Propyl (S)-4-(4-chloro-2-(1-methyl-1H-pyrrol-3-yl)quinoline-7-carbonyl)-2-methylpiperazine-1-carboxylate]
130 nM	CCCOC(=O)N1CCN(C(=O)c2ccc3c(Cl)cc(-c4ccn(C)c4)nc3c2)[C@@H](C)C1 [B194, Propyl (S)-4-(4-chloro-2-(1-methyl-1H-pyrrol-3-yl)quinoline-7-carbonyl)-3-methylpiperazine-1-carboxylate]
56 nM	CCCOC(=O)N1CCN(C(=O)c2ccc3c(Cl)cc(-c4ccc5cn(C)nc5c4)nc3c2)CC1 [B196, Propyl 4-(4-chloro-2-(2-methyl-2H-indazol-6-yl)quinoline-7-carbonyl)piperazine-1-carboxylate]
100 nM	CCCOC(=O)N1CCN(C(=O)c2ccc3c(Cl)cc(-c4ccc5[nH]nc(C)c5c4)nc3c2)C[C@H]1C [B197, Propyl (R)-4-(4-chloro-2-(3-methyl-1H-indazol-5-yl)quinoline-7-carbonyl)-2-methylpiperazine-1-carboxylate]
120 nM	CCCOC(=O)N1CCN(C(=O)c2ccc3c(Cl)cc(-c4ccc(O)c(C)c4)nc3c2)CC1 [B202, Propyl 4-(4-chloro-2-(4-hydroxy-3-methylphenyl)quinoline-7-carbonyl)piperazine-1-carboxylate]
60 nM	CCCOC(=O)N1CCN(C(=O)c2ccc3c(Cl)cc(-c4ccc5ncn(C)c5c4)nc3c2)CC1 [B207, Propyl 4-(4-chloro-2-(1-methyl-1H-benzo[d]imidazol-6-yl)quinoline-7-carbonyl)piperazine-1-carboxylate]
